This assay addresses T1, human CXCR3 (N-delta 4) (Homo sapiens, UniProt P49682).
T1 construct: CD8 leader (N); Flag tag; expressed in transfected cells; membrane preparation
T1 sequence (P49682 5-368 limits assumed): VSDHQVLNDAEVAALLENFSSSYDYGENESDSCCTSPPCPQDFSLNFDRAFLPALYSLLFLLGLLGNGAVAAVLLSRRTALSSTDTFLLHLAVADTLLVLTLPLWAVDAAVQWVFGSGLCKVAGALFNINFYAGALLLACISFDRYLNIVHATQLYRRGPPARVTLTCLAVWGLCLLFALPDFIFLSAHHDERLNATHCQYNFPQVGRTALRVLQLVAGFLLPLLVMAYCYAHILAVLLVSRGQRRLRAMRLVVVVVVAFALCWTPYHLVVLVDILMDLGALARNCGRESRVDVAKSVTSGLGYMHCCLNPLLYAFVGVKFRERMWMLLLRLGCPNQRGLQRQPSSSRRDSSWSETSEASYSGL
The assay can be described thus: Human CXCR3 (N-delta 4) scintillation proximity assay (SPA), [125I] IP-10 binding to Ba/F3-hCXCR3 membranes. The following applies: IC50 rating; [125I] IP-10 displacement, human CXCR3; read-out: IC50. An excerpt: The inventive compounds can readily be evaluated to determine activity at the CXCR3 receptors by known methods, such as, for example, development of a human CXCR3 (N-delta 4) Binding Assay.
The DNA encoding human CXCR3 was cloned by PCR using human genomic DNA (Promega, Madison, Wis.) as a template. The PCR primers were designed based on the published sequence of human orphan receptor GPR9 (1) with incorporated restriction sites, a Kozak consensus sequence, CD8 leader and Flag tag. The PCR product was subcloned into the mammalian expression vector pME18Sneo, a derivative of the SR-alpha expression vector (designated as pME18Sneo-hCXCR3 (N-delta 4).
IL-3-dependent mouse pro-B cells Ba/F3 were transfected by electroporation in 0.4 ml Dulbecco's PBS containing 4×10^6 cells with 20 μg of pME18Sneo-hCXCR3 (N-delta 4) plasmid DNA. Cells were pulsed at 400 Volts, 100 OHMs, 960 μFd. The transfected cells were under selection with 1 mg/ml G418 (Life Technologies, Gaithersburg, Md.). G418-resistant Ba/F3 clones were screened for CXCR3 expression by specific binding of [^125I] IP-10 (NEN Life Science Products, Boston, Mass.).
Ba/F3 cells expressing human CXCR3 (N-delta 4) were pelleted and resuspended in the lysis buffer containing 10 mM HEPES, pH 7.5 and Complete® protease inhibitors (1 tablet per 100 ml) (Boehringer Mannheim, Indianapolis, Ind.) at a cell density of 20×10^6 cells per ml. After 5 minute incubation on ice, cells were transferred to 4639 cell disruption bomb (Parr Instrument, Moline, Ill.) and applied with 1,500 psi of nitrogen for 30 minutes on ice. Large cellular debris was removed by centrifugation at 1,000×g. Cell membrane in the supernatant was sedimented at 100,000×g. The membrane was resuspended in the lysis buffer supplemented with 10% sucrose and stored at −80° C. Total protein concentration of the membrane was determined by BCA method from Pierce (Rockford, Ill.).
Human CXCR3 (N-Delta 4) Scintillation Proximity Assay (SPA):
For each assay point, 2 μg of membrane was preincubated for 1 hr with 300 μg wheat germ agglutinin (WGA) coated SPA beads (Amersham, Arlington Heights, Ill.) in the binding buffer (50 mM HEPES, 1 mM CaCl2, 5 mM MgCl2, 125 mM NaCl, 0.002% NaN3, 1.0% BSA) at room temperature. The beads were spun down, washed once, resuspended in the binding buffer and transferred to a 96-well Isoplate (Wallac, Gaithersburg, Md.). 25 pM of [^125I] IP-10 with tested compounds in a series of titration were added to start the reaction. After 3 hr reaction at room temperature, the amount of [^125I] IP-10 bound to the SPA beads was determined with a Wallac 1450 Microbeta counter.
In general terms: Scintillation proximity formats need no separation of bound from free tracer.

Bounds are passed on as bounds.

For `CC[C@H]1CN(c2ncc(Nc3c(NCCN(C)C)c(=O)c3=O)cc2Cl)CCN1C1CCN([C@H](CO)c2ccc(Cl)cc2)CC1` [Compound 95], the concentration for half-maximal inhibition (IC50) – broadly, the midpoint of a concentration-inhibition curve – is under 25 nM.
`CC[C@H]1CN(c2ncc(NC3=NS(=O)(=O)N=C3NCCO)cc2Cl)CCN1C1CCN(Cc2ccc(Cl)cc2F)CC1` [Compound 238]: the 50% inhibitory concentration (IC50) is under 25 nM.
The same measure for `C[C@@H]1CN(c2ncc(Nc3c(NCC(F)(F)F)c(=O)c3=O)cc2Cl)[C@@H](C)CN1C1CCN(Cc2cccc(Cl)c2Cl)CC1` [Compound 158]: over 100 nM; for `CC[C@H]1CN(c2ncc(Nc3c(NCC(F)(F)F)c(=O)c3=O)cc2Cl)CCN1C1CCN(Cc2ccc(Cl)cc2F)CC1` [Compound 75]: under 25 nM.
For the compound `CC[C@H]1CN(c2ncc(NC3=NS(=O)(=O)N=C3NC3CC3)cc2Cl)CCN1C1CCN(Cc2ccc(F)c(F)c2)CC1` [Compound 251], the IC50 was under 25 nM.
For `CC[C@H]1CN(c2ncc(NS(C)(=O)=O)cc2Cl)CCN1C1CCN(Cc2ccc(OC(F)(F)F)cc2)CC1` [Compound 10], the IC50 is under 25 nM.
For `C[C@@H]1CN(c2ncc(Nc3c(NCC(F)(F)F)c(=O)c3=O)cc2Cl)[C@@H](C)CN1C1CCN(Cc2ccccc2Sc2ccc(Cl)cc2)CC1` [Compound 138], the IC50 is over 100 nM.
`CC[C@H]1CN(c2ncc(Nc3c(NC4CC4)c(=O)c3=O)cc2Cl)CCN1C1CCN(Cc2ccc(Cl)cc2F)CC1` [Compound 73]: the concentration for half-maximal inhibition (IC50) was under 25 nM.
`COc1ccc(CN2CCC(N3C[C@H](C)N(c4ncc(Nc5c(NCC(F)(F)F)c(=O)c5=O)cc4Cl)C[C@H]3C)CC2)cc1` [Compound 117]: the IC50 is over 100 nM.
Regarding `CC[C@H]1CN(c2ncc(N/C(N)=N/C#N)cc2Cl)CCN1C1CCN(Cc2ccc(Cl)cc2F)CC1` [Compound 208], the 50% inhibitory concentration (IC50) was in the range of 25 to 100 nM.
For the compound `C[C@H]1CN(c2ncc(NS(C)(=O)=O)cc2Cl)CCN1C1CCN(Cc2ccc(C(F)(F)F)cc2F)CC1` [Compound 64], the IC50 was over 100 nM.
Under `CC[C@H]1CN(c2ncc(N/C(=N/C#N)NC3CC3)cc2Cl)CCN1C1CCN(Cc2ccc(Cl)cc2F)CC1` [Compound 209] stands 25 to 100 nM.
Consider `CC[C@H]1CN(c2ncc(NS(C)(=O)=O)cc2Cl)CCN1C1CCN(Cc2ccc(Cl)cc2NS(C)(=O)=O)CC1` [Compound 52], for which the 50% inhibitory concentration (IC50) was over 100 nM.
On to `CC[C@H]1CN(c2ncc(Nc3c(NC4CC4)c(=O)c3=O)cc2Cl)CCN1C1CCN(Cc2ccc(Br)cc2F)CC1` [Compound 79], for which the 50% inhibitory concentration (IC50) is under 25 nM.
As to `CC[C@H]1CN(c2ncc(NS(N)(=O)=O)cc2Cl)CCN1C1CCN(Cc2ccc(Cl)cc2F)CC1` [Compound 2], the IC50 was under 25 nM.
Turning to `CCNC(=O)Nc1cnc(N2C[C@H](C)N(C3CCN(Cc4ccc(Cl)cc4F)CC3)C[C@H]2C)c(Cl)c1` [Compound 191], the IC50 is over 100 nM.
On to `CC[C@H]1CN(c2ncc(NC3=NS(=O)(=O)N=C3NC3CC3)cc2Cl)CCN1C1CCN(Cc2ccc(Cl)cc2-c2nnc[nH]2)CC1` [Compound 250], for which the half-inhibitory concentration (IC50) was under 25 nM.
Turning to `C[C@@H]1CN(c2ncc(Nc3c(NCC(F)(F)F)c(=O)c3=O)cc2Cl)[C@@H](C)CN1C1CCN(Cc2ccc(C#N)cc2)CC1` [Compound 114], the IC50 was over 100 nM.
With `CC[C@H]1CN(c2ncc(Nc3c(NCC(=O)OC(C)(C)C)c(=O)c3=O)cc2Cl)CCN1C1CCN([C@@H](CO)c2ccc(Cl)cc2)CC1` [Compound 139], the half-inhibitory concentration (IC50) was over 100 nM.
As for `CC[C@H]1CN(c2ncc(N)cc2Cl)CCN1C1CCN(Cc2ccc(Br)cc2F)CC1` [Compound 203], the IC50 was under 25 nM.
For the compound `CC[C@H]1CN(c2ncc(NC3=NS(=O)(=O)N=C3NC3CC3)cc2Cl)CCN1C1CCN(Cc2ccc(Cl)cc2C#N)CC1` [Compound 260], the half-inhibitory concentration (IC50) lay within 25 to 100 nM.
As for `C[C@H]1CN(c2ncc(N)cc2Cl)CCN1C1CCN(Cc2ccc(Cl)cc2F)CC1` [Compound 224], the IC50 was over 100 nM.
Regarding `Cc1cc(Nc2c(NCC(F)(F)F)c(=O)c2=O)cnc1N1C[C@@H](C)N(C2CCN(C(=O)c3ccc(Cl)cc3)CC2)C[C@@H]1C` [Compound 141], the concentration for half-maximal inhibition (IC50) was over 100 nM.
For `CC[C@H]1CN(c2ncc(NS(C)(=O)=O)cc2Cl)CCN1C1CCN(Cc2ccc(Br)cc2F)CC1` [Compound 8], the IC50 is under 25 nM.
Under `CC[C@H]1CN(c2ncc(N)cc2Cl)CCN1C1CCN(Cc2ccc(Cl)cc2)CC1` [Compound 202] stands under 25 nM.
For the compound `CC[C@H]1CN(c2ncc(NS(N)(=O)=O)cc2Cl)CCN1C1CCN([C@H](C(N)=O)c2ccc(Cl)cc2)CC1` [Compound 35], the IC50 lay within 25 to 100 nM.
With `CC[C@H]1CN(c2ncc(N)cc2Cl)CCN1C1CCN(Cc2ccc(Cl)cc2F)CC1` [Compound 206], the IC50 was 25 to 100 nM.
As for `CC[C@H]1CN(c2ncc(NS(C)(=O)=O)cc2Cl)CCN1C1CCN(Cc2ccc(Br)cc2OC)CC1` [Compound 65], the IC50 is over 100 nM.
Under `CC(C)C1CCC(N2CCC(N3C[C@H](C)N(c4ncc(Nc5c(NCC(F)(F)F)c(=O)c5=O)cc4Cl)C[C@H]3C)CC2)CC1` (stereo partly drawn) [Compound 169] stands over 100 nM.
With `C[C@@H]1CN(C2CCN(Cc3ccc(Cl)cc3F)CC2)[C@@H](C)CN1c1ncc(Nc2c(N)c(=O)c2=O)cc1Cl` [Compound 100], the IC50 was under 25 nM.
As for `C[C@@H]1CN(c2ncc(NC3C(=O)C(=O)C3NCC(F)(F)F)cc2Cl)[C@@H](C)CN1C1CCN(Cc2ccc3ccccc3c2)CC1` (stereo partly drawn) [Compound 122], the concentration for half-maximal inhibition (IC50) was over 100 nM.
With `CC[C@H]1CN(c2ncc(Nc3c(NC4CC4)c(=O)c3=O)cc2Cl)CCN1C1CCN(Cc2ccc(OC(F)F)cc2)CC1` [Compound 74], the IC50 was under 25 nM.
Consider `CC[C@H]1CN(c2ncc(-n3cn[nH]c3=O)cc2Cl)CCN1C1CCN(Cc2ccc(Cl)cc2F)CC1` [Compound 179], for which the concentration for half-maximal inhibition (IC50) was under 25 nM.
For `CC[C@H]1CN(c2ncc(N(S(C)(=O)=O)S(C)(=O)=O)cc2Cl)CCN1C1CCN(Cc2ccc(Cl)cc2F)CC1` [Compound 61], the half-inhibitory concentration (IC50) was over 100 nM.
Consider `CCCCNC1=NS(=O)(=O)N=C1Nc1cnc(N2CCN(C3CCN(Cc4ccc(Cl)cc4C#N)CC3)[C@@H](CC)C2)c(Cl)c1` [Compound 273], for which the IC50 is over 100 nM.
On to `CC[C@H]1CN(c2ncc(NC3=NS(=O)(=O)N=C3N(C)C)cc2Cl)CCN1C1CCN(Cc2ccc(OC(F)(F)F)cc2)CC1` [Compound 271], for which the IC50 was over 100 nM.
The same measure for `CC[C@H]1CN(c2ncc(NC3=NS(=O)(=O)N=C3NC[C@@H](C)O)cc2Cl)CCN1C1CCN(Cc2ccc(Cl)cc2F)CC1` [Compound 258]: 25 to 100 nM.
Turning to `CC[C@H]1CN(c2ncc(NS(C)(=O)=O)cc2Cl)CCN1C1CCN(Cc2c(F)cc(F)cc2F)CC1` [Compound 47], the IC50 was over 100 nM.
In the case of `CC[C@H]1CN(c2ncc(NC3=NS(=O)(=O)N=C3NC)cc2Cl)CCN1C1CCN(Cc2ccc(Cl)cc2C(=N)NO)CC1` [Compound 244], the IC50 was under 25 nM.
On to `CC[C@H]1CN(c2ncc(NC3=NS(=O)(=O)N=C3NCCO)cc2Cl)CCN1C1CCN(Cc2ccc(F)c(F)c2)CC1` [Compound 257], for which the IC50 was 25 to 100 nM.
In the case of `CC[C@H]1CN(c2ncc(Nc3c(NC4CC4)c(=O)c3=O)cc2Cl)CCN1C1CCN([C@@H](C(=O)NC)c2ccc(Cl)cc2)CC1` [Compound 101], the concentration for half-maximal inhibition (IC50) is under 25 nM.
For the compound `CC[C@H]1CN(c2ncc(NC3=NS(=O)(=O)N=C3N3CCOCC3)cc2Cl)CCN1C1CCN(Cc2ccc(F)c(F)c2)CC1` [Compound 269], the IC50 is over 100 nM.
The same measure for `CC[C@H]1CN(c2ncc(NS(C)(=O)=O)cc2Cl)CCN1C1CCN(Cc2ccc(Cl)s2)CC1` [Compound 26]: 25 to 100 nM; for `CC[C@H]1CN(c2ncc(Nc3c(N4CCC4)c(=O)c3=O)cc2Cl)CCN1C1CCN(Cc2ccc(Cl)cc2F)CC1` [Compound 93]: under 25 nM; for `COc1ccc(CN2CCC(N3CCN(c4ncc(NS(C)(=O)=O)cc4Cl)C[C@@H]3C)CC2)c(F)c1` [Compound 56]: over 100 nM.

The values are drawn from patent US7566718B2, “Amine-linked pyridyl and phenyl substituted piperazine-piperidines with CXCR3 antagonist activity” (Schering Corporation, priority 2005, dated 2009).
